Measurements as given in PubChem BioAssay AID1963852 (Molecular Pharmacology Branch, DTP, NCI, 2024).
pIC50: −log10 of the molar value.

System: 282377-053-R-J1-PDC complex spheroid viability
Experiment: Anticancer human tumor 282377-053-R-J1-PDC patient-derived colon adenocarcinoma cell line growth inhibition [POLQ]
Conditions: for pIC50: curve of first compound; for viability, T/C: stronger effect = lower value
Summary of the method: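 PDC + HUVEC + MSC complex spheroids; POLQ inhibitors ± partner drugs; top conc. at/near clinical Cmax, else 10 microM (SN-38 1 microM), half-log dilutions; 37 degrees C, 5% CO2.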

[1] = second compound 0.0316 µM, first compound 0.0316 µM
[2] = second compound 0.0316 µM, first compound 0.1 µM
[3] = second compound 0.0316 µM, first compound 0.316 µM
[4] = second compound 0.0316 µM, first compound 1 µM
[5] = second compound 0.0316 µM, first compound 3.16 µM
[6] = second compound 0.0316 µM, first compound 10 µM
[7] = second compound 0.1 µM, first compound 0.0316 µM
[8] = second compound 0.1 µM, first compound 0.1 µM
[9] = second compound 0.1 µM, first compound 0.316 µM
[10] = second compound 0.1 µM, first compound 1 µM
[11] = second compound 0.1 µM, first compound 3.16 µM
[12] = second compound 0.1 µM, first compound 10 µM
[13] = second compound 0.316 µM, first compound 0.0316 µM
[14] = second compound 0.316 µM, first compound 0.1 µM
[15] = second compound 0.316 µM, first compound 0.316 µM
[16] = second compound 0.316 µM, first compound 1 µM
[17] = second compound 0.316 µM, first compound 3.16 µM
[18] = second compound 0.316 µM, first compound 10 µM
[19] = second compound 1 µM, first compound 0.0316 µM
[20] = second compound 1 µM, first compound 0.1 µM
[21] = second compound 1 µM, first compound 0.316 µM
[22] = second compound 1 µM, first compound 1 µM
[23] = second compound 1 µM, first compound 3.16 µM
[24] = second compound 1 µM, first compound 10 µM
[25] = second compound 3.16 µM, first compound 0.0316 µM
[26] = second compound 3.16 µM, first compound 0.1 µM
[27] = second compound 3.16 µM, first compound 0.316 µM
[28] = second compound 3.16 µM, first compound 1 µM
[29] = second compound 3.16 µM, first compound 3.16 µM
[30] = second compound 3.16 µM, first compound 10 µM
[31] = second compound 10 µM, first compound 0.0316 µM
[32] = second compound 10 µM, first compound 0.1 µM
[33] = second compound 10 µM, first compound 0.316 µM
[34] = second compound 10 µM, first compound 1 µM
[35] = second compound 10 µM, first compound 3.16 µM
[36] = second compound 10 µM, first compound 10 µM
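Further: spheroids exposed to compounds for seven days.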
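Wherever viability, T/C is given: 100% = DMSO vehicle control viability.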

For `COc1cc(C2c3cc4c(cc3C(OC3OC5COC(C)OC5C(O)C3O)C3COC(=O)C23)OCO4)cc(OC)c1O` (stereo unspecified) + Nc1ccc(C#CCN(C(=O)Cc2ncc(C(F)(F)F)cc2C(F)(F)F)c2ccc(F)cc2)nn1, the pIC50 (second compound 0.0316 µM) was < 5.00, the pIC50 (second compound 0.1 µM) was < 5.00 and the pIC50 (second compound 0.316 µM) was < 5.00. The pIC50 (second compound 1 µM) was < 5.00, the pIC50 (second compound 3.16 µM) was < 5.00 and the pIC50 (second compound 10 µM) was < 5.00. For the same compound, the viability, T/C [1] was 113%, the viability, T/C [2] was 88.9% and the viability, T/C [3] was 116%. It also gave a viability, T/C [4] of 114%, a viability, T/C [5] of 109% and a viability, T/C [6] of 108%. The viability, T/C [7] was 100%, the viability, T/C [8] was 97.8% and the viability, T/C [9] was 83.5%. It also gave a viability, T/C [10] of 94.3%, a viability, T/C [11] of 98% and a viability, T/C [12] of 87.3%. The viability, T/C [13] was 93.1%, the viability, T/C [14] was 99.3% and the viability, T/C [15] was 75.8%. It also gave a viability, T/C [16] of 99.7%, a viability, T/C [17] of 96.6% and a viability, T/C [18] of 93.5%. The viability, T/C [19] was 88.6%, the viability, T/C [20] was 98.6% and the viability, T/C [21] was 107%. It also gave a viability, T/C [22] of 121%, a viability, T/C [23] of 113% and a viability, T/C [24] of 83%. The viability, T/C [25] was 118%, the viability, T/C [26] was 102% and the viability, T/C [27] was 119%. It also gave a viability, T/C [28] of 127%, a viability, T/C [29] of 92.5% and a viability, T/C [30] of 91.9%. The viability, T/C [31] was 107%, the viability, T/C [32] was 122% and the viability, T/C [33] was 139%. For the same compound, the viability, T/C [34] was 146%, the viability, T/C [35] was 115% and the viability, T/C [36] was 106%.

`COc1cccc2c1C(=O)c1c(O)c3c(c(O)c1C2=O)CC(O)(C(=O)CO)CC3OC1CC(N)C(O)C(C)O1` (stereo unspecified) + Nc1ccc(C#CCN(C(=O)Cc2ncc(C(F)(F)F)cc2C(F)(F)F)c2ccc(F)cc2)nn1 showed a pIC50 (second compound 0.0316 µM) of 5.71, a pIC50 (second compound 0.1 µM) of 5.68 and a pIC50 (second compound 0.316 µM) of 5.69. It also gave a pIC50 (second compound 1 µM) of 5.72, a pIC50 (second compound 3.16 µM) of 5.74 and a pIC50 (second compound 10 µM) of 5.72. It also gave a viability, T/C [1] of 99.2%, a viability, T/C [2] of 98.9% and a viability, T/C [3] of 123%. It also gave a viability, T/C [4] of 94.6%, a viability, T/C [5] of 17.8% and a viability, T/C [6] of 3%. For the same compound, the viability, T/C [7] was 107%, the viability, T/C [8] was 108% and the viability, T/C [9] was 110%. It also gave a viability, T/C [10] of 110%, a viability, T/C [11] of 17.6% and a viability, T/C [12] of 2.63%. The viability, T/C [13] was 92.8%, the viability, T/C [14] was 108% and the viability, T/C [15] was 130%. It also gave a viability, T/C [16] of 103%, a viability, T/C [17] of 15.8% and a viability, T/C [18] of 3.07%. For the same compound, the viability, T/C [19] was 94.2%, the viability, T/C [20] was 120% and the viability, T/C [21] was 128%. It also gave a viability, T/C [22] of 100%, a viability, T/C [23] of 10.8% and a viability, T/C [24] of 4.26%. It also gave a viability, T/C [25] of 104%, a viability, T/C [26] of 108% and a viability, T/C [27] of 123%. For the same compound, the viability, T/C [28] was 96%, the viability, T/C [29] was 8.6% and the viability, T/C [30] was 3.58%. The viability, T/C [31] was 119%, the viability, T/C [32] was 142% and the viability, T/C [33] was 127%. The viability, T/C [34] was 105%, the viability, T/C [35] was 6.84% and the viability, T/C [36] was 3.41%.

With `O=c1[nH]cc(F)c(=O)[nH]1` + Nc1ccc(C#CCN(C(=O)Cc2ncc(C(F)(F)F)cc2C(F)(F)F)c2ccc(F)cc2)nn1 the pIC50 (second compound 0.0316 µM) was < 5.00, the pIC50 (second compound 0.1 µM) was < 5.00 and the pIC50 (second compound 0.316 µM) was < 5.00. For the same compound, the pIC50 (second compound 1 µM) was < 5.00, the pIC50 (second compound 3.16 µM) was < 5.00 and the pIC50 (second compound 10 µM) was < 5.00. The viability, T/C [1] was 115%, the viability, T/C [2] was 107% and the viability, T/C [3] was 142%. It also gave a viability, T/C [4] of 117%, a viability, T/C [5] of 89.9% and a viability, T/C [6] of 95.1%. For the same compound, the viability, T/C [7] was 107%, the viability, T/C [8] was 126% and the viability, T/C [9] was 109%. It also gave a viability, T/C [10] of 91.6%, a viability, T/C [11] of 95.1% and a viability, T/C [12] of 94.5%. For the same compound, the viability, T/C [13] was 118%, the viability, T/C [14] was 98% and the viability, T/C [15] was 111%. The viability, T/C [16] was 99.1%, the viability, T/C [17] was 87.5% and the viability, T/C [18] was 90.7%. It also gave a viability, T/C [19] of 106%, a viability, T/C [20] of 103% and a viability, T/C [21] of 116%. For the same compound, the viability, T/C [22] was 108%, the viability, T/C [23] was 112% and the viability, T/C [24] was 95.1%. It also gave a viability, T/C [25] of 119%, a viability, T/C [26] of 122% and a viability, T/C [27] of 121%. For the same compound, the viability, T/C [28] was 118%, the viability, T/C [29] was 98.8% and the viability, T/C [30] was 85.9%. It also gave a viability, T/C [31] of 123%, a viability, T/C [32] of 128% and a viability, T/C [33] of 124%. The viability, T/C [34] was 134%, the viability, T/C [35] was 90% and the viability, T/C [36] was 111%.
